From US20230107277A1, “SUBSTITUTED PYRIDAZINE COMPOUND” (Astellas Pharma Inc., priority 2020, published 2023)
pIC50: −log10 of the molar value. Counter-ions that a name gives are not always drawn.

System: IL-1β Production of THP-1
Assay: Test on IL-1β production of THP-1 (LPS and ATP stimulation, ELISA)
Type: cell-based
Settings: Homo sapiens; PMA-differentiated THP-1 cells, LPS 50 ng/mL and ATP 5 mM, 2 hours
Description: 50 ng/mL of PMA (phorbol myristate acetate, SIGMA, P1585) was added to THP-1 cells, and the cells were cultured at 37° C. for 2 days. […] LPS (Lipopolysaccharide, SIMGA, L2880) and ATP (Adenosine triphosphate, SIGMA, A2383) were added to final concentrations of 50 ng/mL and 5 mM, respectively, and the cells were cultured at 37° C. for 2 hours. The supernatant was collected, and the concentration of IL-1β was measured by an ELISA method (DuoSet ELISA human IL-1β, R&D Systems, DY201). […] The IC50 value was calculated by sigmoid […] model non-linear regression analysis.

| Compound | pIC50 |
| --- | --- |
| COc1ccc(-c2cc(C)c(NC[C@@H](C)O)nn2)c(C2CC2)c1 [Example 22] | 6.28 |
| C[C@@H](O)CNc1nnc(-c2ccc(C(F)(F)F)cc2C(F)(F)F)cc1C(=O)N1CCO[C@@H](C)C1 [Example 43] | 6.07 |
| CC(C)C(=O)NCCCCNc1ccc(-c2ccc(C(F)(F)F)cc2C(F)(F)F)nn1 [Example 47] | 6.40 |
| OCCCNc1nnc(-c2ccc(C(F)(F)F)cc2)cc1-c1ccccc1 [Example 2] | 5.74 |
| CC(C)c1cc(NC[C@@H](C)O)nnc1-c1ccc(C(F)(F)F)cc1O [Example 26] | 7.27 |
| C[C@@H](O)CNc1ccc(-c2ccc(C(F)(F)F)cc2O)nn1 [Example 18] | 6.59 |
| C[C@@H](O)CNc1nnc(-c2ccc(C(F)(F)F)cc2C(F)(F)F)cc1C(=O)N1CCOCC1 [Example 40, (6-[2,4-bis(trifluoromethyl)phenyl]-3-{[(2R)-2-hydroxypropyl]amino}pyridazin-4-yl)(morpholin-4-yl)methanone] | 6.62 |
| COc1ccc(-c2nnc(NC[C@@H](C)O)cc2C)c(C2CC2)c1 [Example 60] | 5.77 |
| CCc1c(NC[C@@H](C)O)nnc(-c2ccc(C(F)(F)F)cc2O)c1CC [Example 67] | 6.77 |
| Cc1cc(NC[C@@H](C)O)nnc1-c1c(O)cccc1F [Example 36] | 6.21 |
| Cc1cc(N[C@@H]2CCCC[C@H]2O)nnc1-c1ccc(C(F)(F)F)cc1C(F)(F)F [Example 16] | 6.70 |
| Cc1cc(NC[C@@H](C)O)nnc1-c1ccc(F)cc1O [Example 27] | 6.72 |
| C[C@@H](O)CNc1cc(C2CC2)c(-c2ccc(Cl)cc2O)nn1 [Example 78] | 7.37 |
| C[C@@H](O)CNc1nnc(-c2ccc(C(F)(F)F)cc2C(F)(F)F)cc1OC(F)F [Example 49, (2R)-1-({6-[2,4-bis(trifluoromethyl)phenyl]-4-(difluoromethoxy)pyridazin-3-yl}amino)propan-2-ol hydrochloride] | 6.17 |
| Cc1cc(NC[C@@H](C)O)nnc1-c1ccccc1O [Example 25] | 6.30 |
| OCCCNc1cc(-c2ccco2)c(-c2ccc(C(F)(F)F)cc2)nn1 [Example 51] | 6.00 |
| COc1ccc(-c2cc(C)c(NC[C@@H](C)O)nn2)c(C(F)(F)F)c1 [Example 21] | 6.80 |
| OCCCNc1cc(-c2ccccc2)c(-c2ccc(C(F)(F)F)cc2C(F)(F)F)nn1 [Example 54] | 5.46 |
| O=C(NCCCCNc1ccc(-c2ccc(C(F)(F)F)cc2C(F)(F)F)nn1)C1CC1 [Example 48] | 6.29 |
| Cc1cc(NC[C@@H](C)O)nnc1-c1cccc(F)c1O [Example 30] | 6.29 |
| C[C@@H](O)CNc1nnc(-c2ccc(C(F)(F)F)cc2C(F)(F)F)cc1C(=O)N1CCSCC1 [Example 44] | 6.24 |
| COc1ccc(-c2nnc(NC[C@@H](C)O)cc2C)c(C(F)(F)F)c1 [Example 59] | 6.12 |
| O=C(NCCCCNc1ccc(-c2ccc(C(F)(F)F)cc2C(F)(F)F)nn1)C(F)F [Example 46, N-[4({6-[2,4-bis(trifluoromethyl)phenyl]pyridazin-3-yl}amino)butyl]-2,2-difluoroacetoamide] | 6.92 |

| Compound | pIC50 |
| --- | --- |
| CCc1cc(NC[C@@H](C)O)nnc1-c1ccc(C(F)(F)F)cc1O [Example 64] | 7.48 |
| C[C@@H](O)CNc1cc(-n2ccnc2)c(-c2ccc(C(F)(F)F)cc2C(F)(F)F)nn1 [Example 55] | 5.29 |
| Cc1c(NC[C@@H](C)O)nnc(-c2ccc(Cl)cc2O)c1C [Example 65] | 7.31 |
| OCCCNc1cc(-c2ccccc2)c(-c2ccc(C(F)(F)F)cc2)nn1 [Example 1, 3-({5-phenyl-6-[4-(trifluoromethyl)phenyl]pyridazin-3-yl}amino)propan-1-ol] | 6.01 |
| CC(C)c1cc(-c2ccc(C(F)(F)F)cc2C(F)(F)F)nnc1NC[C@@H](C)O [Example 24] | 6.25 |
| C[C@@H](O)CNc1nnc(-c2ccc(C(F)(F)F)cc2C(F)(F)F)cc1C(=O)N(C)C [Example 14] | 6.48 |
| CC(=O)NCCCCNc1nnc(-c2ccc(C(F)(F)F)cc2O)c(C)c1C [Example 74] | 7.46 |
| CC(O)CNc1ccc(-c2ccc(C(F)(F)F)cc2C(F)(F)F)nn1 (stereo not shown) [Example 10] | 6.70 |
| Cc1c(NCC(C)CO)nnc(-c2ccc(Cl)cc2O)c1C (stereo not shown) [Example 77] | 7.05 |
| C[C@@H](O)CNc1nnc(-c2ccc(C(F)(F)F)cc2C(F)(F)F)cc1C(=O)N1CCOC[C@@H]1C [Example 57] | 5.80 |
| C[C@@H](O)CNc1ccc(-c2ccc(C(F)(F)F)cc2C(F)(F)F)nn1 [Example 12] | 6.82 |
| C[C@@H](O)CNc1cc(C2CC2)c(-c2ccc(C(F)(F)F)cc2C(F)(F)F)nn1 [Example 29] | 6.34 |
| Cc1c(NCCCO)nnc(-c2ccc(C(F)(F)F)cc2O)c1C [Example 70, 2-{6-[(3-hydroxypropyl)amino]-4,5-dimethylpyridazine-3-yl}-5-(trifluoromethyl)phenol] | 7.44 |
| Cc1cc(NC[C@@H](C)O)nnc1-c1ccc(C(F)(F)F)cc1O [Example 7, 2-(6-{[(R2R)-2-hydroxypropyl]amino}-4-methylpyridazin-3-yl)-5-(trifluoromethyl)phenol] | 7.77 |
| C[C@@H](O)CNc1cc(C2CC2)c(-c2ccc(C(F)(F)F)cc2O)nn1 [Example 32] | 7.96 |
| C[C@@H](O)CNc1nnc(-c2ccc(C(F)(F)F)cc2O)cc1N(C)C [Example 35] | 6.23 |
| C[C@@H](O)CNc1nnc(-c2ccc(C(F)(F)F)cc2C(F)(F)F)cc1OCCOCc1ccccc1 [Example 19] | 6.21 |
| Cc1cc(-c2ccc(C(F)(F)F)cc2C(F)(F)F)nnc1N[C@@H]1CCCC[C@H]1O [Example 17] | 6.96 |
| Cc1cc(NC[C@@H](C)O)nnc1-c1ccc(Cl)cc1O [Example 66] | 7.33 |
| Cc1cc(-c2ccc(Cl)cc2C(F)(F)F)nnc1NC[C@@H](C)O [Example 23] | 6.92 |
| Cc1cc(NC[C@@H](C)O)nnc1-c1cccc(Cl)c1O [Example 33] | 6.77 |
| Cc1cc(-c2ccc(C(F)(F)F)cc2)nnc1NCCCO [Example 53] | 5.57 |
| OCCCNc1nnc(-c2ccc(C(F)(F)F)cc2)cc1-c1ccco1 [Example 50] | 5.96 |

| Compound | pIC50 |
| --- | --- |
| Cc1c(NCC(C)(C)O)nnc(-c2ccc(C(F)(F)F)cc2O)c1C [Example 68, 2-{6-[(2-hydroxy-2-methylpropyl)amino]-4,5-dimethylpyridazine-3-yl}-5-(trifluoromethyl)phenol] | 6.51 |
| C[C@@H](O)CNc1nnc(-c2ccc(C(F)(F)F)cc2C(F)(F)F)cc1C(N)=O [Example 41] | 6.70 |
| Cc1c(NCC(C)CO)nnc(-c2ccc(C(F)(F)F)cc2O)c1C (stereo not shown) [Example 71] | 7.42 |
| Cc1c(NC[C@H](C)O)nnc(-c2ccc(C(F)(F)F)cc2C(F)(F)F)c1C [Example 20] | 5.82 |
| Cc1cc(NCCCO)nnc1-c1ccc(C(F)(F)F)cc1 [Example 52] | 6.33 |
| Cc1c(NC[C@H](C)O)nnc(-c2ccc(C(F)(F)F)cc2O)c1C [Example 73] | 7.37 |
| Cc1cc(NC[C@@H](C)O)nnc1-c1cc(F)ccc1O [Example 62] | 5.68 |
| C[C@@H]1COCCN1C(=O)c1cc(-c2ccc(C(F)(F)F)cc2C(F)(F)F)nnc1NC[C@@H](C)O [Example 56] | 5.60 |
| C[C@@H](O)CNc1nnc(-c2ccc(C(F)(F)F)cc2C(F)(F)F)cc1C1CC1 [Example 28] | 6.70 |
| C[C@@H](O)CNc1nnc(-c2ccc(C(F)(F)F)cc2C(F)(F)F)cc1C(=O)N1CCN(C)CC1 [Example 42, (6-[2,4-bis(trifluoromethyl)phenyl]-3-{[(2R)-2-hydroxypropyl]amino}pyridazine-4-yl)(4-methylpiperazin-1-yl)methanone] | 5.82 |
| COc1cccc(-c2nnc(NC[C@@H](C)O)cc2C)c1O [Example 31] | 6.57 |
| Cc1cc(NC[C@@H](C)O)nnc1-c1ccc(C(F)(F)F)cc1C(F)(F)F [Example 5, (2R)-1-({6-[2,4-bis(trifluoromethyl)phenyl]-5-methylpyridazin-3-yl}amino)propan-2-ol] | 6.70 |
| Cc1cc(-c2ccc(C(F)(F)F)cc2O)nnc1NC[C@@H](C)O [Example 8, 2-(6-{[(R2R)-2-hydroxypropyl]amino}-5-methylpyridazin-3-yl)-5-(trifluoromethyl)phenol] | 6.80 |
| C[C@@H](O)CNc1nnc(-c2ccc(C(F)(F)F)cc2O)cc1C#N [Example 37] | 7.48 |
| COc1ccc(-c2nnc(NC[C@@H](C)O)cc2C)c(O)c1 [Example 69] | 6.60 |
| CC(=O)N[C@H](C)CNc1ccc(-c2ccc(C(F)(F)F)cc2C(F)(F)F)nn1 [Example 45, N—[(R2R)-1-({6-[2,4-bis(trifluoromethyl)phenyl]pyridazin-3-yl}amino)propan-2-yl]acetoamide] | 6.28 |
| CC(=O)NCCCCNc1ccc(-c2ccc(C(F)(F)F)cc2C(F)(F)F)nn1 [Example 11] | 6.82 |
| C[C@@H](O)CNc1nnc(-c2ccc(C(F)(F)F)cc2C(F)(F)F)cc1-n1cccn1 [Example 13] | 6.92 |
| Cc1c(NC[C@@H](C)CO)nnc(-c2ccc(C(F)(F)F)cc2O)c1C (single isomer, unassigned) [Example 76, 2-(6-{[(R2R)-3-hydroxy-2-methylpropyl]amino}-4,5-dimethylpyridazine-3-yl)-5-(trifluoromethyl)phenol] | 7.59 |
| C[C@@H]1CN(C(=O)c2cc(-c3ccc(C(F)(F)F)cc3C(F)(F)F)nnc2NC[C@@H](C)O)CCO1 [Example 58] | 6.02 |
| Cc1c(NC[C@H](C)CO)nnc(-c2ccc(C(F)(F)F)cc2O)c1C [Example 75] | 7.74 |
